Holding throughout (experiment): NCI-60 cell line screen, 48 h
Assay [1] relates to NCI/ADR-RES.
Assay [2] deals with OVCAR-4.
Assay [3] relates to T47D.
In assay [4] the test system is HCT-15.
The test system of assay [5] is U-251.
Assay [6] has as its system Hs-578T.
Assay [7] has as its system SK-MEL-28.
For assay [8], the system named is PC-3.
Assay [9] has as its system TK-10.
Assay [10] deals with IGROV-1.
The test system of assay [11] is RPMI-8226.
Assay [12] concerns Malme-3M.
Assay [13] relates to HOP-92.
Assay [14] concerns HT-29.
The test system of assay [15] is SK-MEL-5.
Assay [16] concerns DU-145.
For assay [17], the system named is UACC-62.
Assay [18] deals with KM12.
Assay [19] deals with HL-60.
The subject of assay [20] is LOX IMVI.

The structures appear in SMILES notation.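 Values below derive from 48-hour exposures of cells grown in 96-well plates, with endpoints linearly interpolated between the two concentrations bracketing the appropriate inhibition level. The concentration for 50% growth inhibition is given as GI50.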 The source made the active and inactive calls. No stated cut-off is given here; in the data, active = GI50 up to about 1.1 µM and inactive = higher. A value given as a limit tells only on which side of the number the result lay.

For the compound `COC(=O)[C@@H](Cc1ccccc1)N1O[C@]12CCCC[C@@H]2NC(=O)OC(C)(C)C` (stereo partly specified), the GI50 in assay [1] was 23.1 µM (inactive); in assay [2], 31.6 µM (inactive); in [3], 24.7 µM (inactive); in assay [4] it was 18.4 µM; in [5] it was 26.9 µM (inactive); in [6], 21.6 µM (inactive). Moreover, the GI50 in [7] was 22.1 µM (inactive); in [8], 25.6 µM (inactive); in [9], 25.1 µM (inactive); in assay [10], 14.7 µM (inactive); in assay [11], 44.5 µM (inactive); in [12] it was 22.1 µM (inactive). Further, the GI50 in assay [13] is 21.3 µM (inactive); in [14], 18.3 µM (inactive); in [15], 19.5 µM (inactive); in assay [16], 29.4 µM (inactive); in assay [17], 23.2 µM (inactive); in [18], 48 µM (inactive).
In the case of `CN(C)C(=S)/N=c1\ssc(=S)n1Cc1cccnc1`, the GI50 in assay [1] was 1.01 µM (active); in assay [2] it was 19.3 µM (inactive); in assay [19], 1.76 µM (inactive); in assay [3] it was > 100 µM (inactive); in assay [20] it was 4.27 µM (inactive); in [4] it was 1.23 µM. Moreover, the GI50 is 3.38 µM (inactive) in assay [5]; 1.86 µM (inactive) in [6]; 9.4 µM (inactive) in assay [7]; 1.67 µM (inactive) in assay [8]; 14.2 µM (inactive) in assay [9]; 7.18 µM (inactive) in assay [10]. Further, the GI50 in assay [11] was 3.47 µM (inactive); in assay [12], 2.16 µM (inactive); in [13], 3.81 µM (inactive); in [14], 1.66 µM (inactive); in [15], 1.67 µM (inactive); in assay [17] it was 2.17 µM (inactive). For the same compound, the GI50 in [18] was 1 µM (active).
As to `CCOC(=O)c1sc2nc1CSc1sc(=S)sc1SCc1nc(sc1C(=O)OCC)-c1nc(c(C(=O)OCC)s1)CSc1sc(=S)sc1SCc1nc-2sc1C(=O)OCC`, the GI50 is > 10 µM (inactive) in assay [1]; > 10 µM (inactive) in assay [2]; > 10 µM (inactive) in assay [19]; > 10 µM (inactive) in assay [3]; > 10 µM (inactive) in assay [20]; more than 10 µM in assay [4]. Besides, the GI50 in [5], in assay [6], in assay [7], in assay [8], in assay [9] and in assay [10] was > 10 µM (inactive) each time. Also, the GI50 in assay [11], in assay [12], in assay [13], in [14], in assay [15] and in assay [17] was > 10 µM (inactive) throughout. Also, in assay [18], the GI50 is > 10 µM (inactive).
In the case of `CCOC(=O)CO/N=C\C1=CC(=O)C2CC1C2(C)C` (stereo unspecified), the GI50 in assay [1] was > 100 µM (inactive); in assay [19] it was > 100 µM (inactive); in assay [3], > 100 µM (inactive); in [20] it was > 100 µM (inactive); in [4], more than 100 µM; in assay [5], > 100 µM (inactive). Moreover, the GI50 in [6], in assay [7], in assay [8], in [9], in [10] and in assay [11] was > 100 µM (inactive) throughout. In addition, the GI50 in [12], in [14], in assay [15], in assay [16], in [17] and in [18] was > 100 µM (inactive) in each case.
`O=C1C=C(N2CCCC2)C(=O)c2c(O)ccc(O)c21`: the GI50 in [19] was 4.52 µM (inactive); in assay [3] it was > 10 µM (inactive); in [20], > 10 µM (inactive); in assay [4], more than 10 µM; in assay [6], > 10 µM (inactive); in assay [7], > 10 µM (inactive). Also, the GI50 in [8] is > 10 µM (inactive); in [9], > 10 µM (inactive); in [10], > 10 µM (inactive); in [12] it was 3.93 µM (inactive); in assay [13], > 10 µM (inactive); in [14], > 10 µM (inactive). Further, the GI50 in assay [15] is 4.6 µM (inactive); in assay [16] it was > 10 µM (inactive); in [17], 7.28 µM (inactive); in assay [18] it was > 10 µM (inactive).
In the case of `FC(F)(F)c1ccccc1C1SCC2=Nc3ccccc3CN21` (stereo unspecified), the GI50 in assay [1] was 18.3 µM (inactive); in assay [2], 15.4 µM (inactive); in assay [19] it was 21.3 µM (inactive); in assay [3], 16.8 µM (inactive); in assay [20], 15.1 µM (inactive); in assay [4], 14.1 µM. In addition, the GI50 in [5] is 28.4 µM (inactive); in [6] it was 12.3 µM (inactive); in assay [7] it was 19.3 µM (inactive); in assay [8] it was 14.1 µM (inactive); in [9], 14.4 µM (inactive); in assay [10] it was 16.1 µM (inactive). The GI50 is 24.8 µM (inactive) in assay [11]; 17 µM (inactive) in [13]; 16.4 µM (inactive) in assay [14]; 14.7 µM (inactive) in assay [15]; 12.8 µM (inactive) in [16]; 13.2 µM (inactive) in [17]. Also, the GI50 in assay [18] is 12.9 µM (inactive).
In the case of `COc1ccc(S(=O)(=O)O)cc1NS(=O)(=O)c1ccc(C)cc1`, the GI50 in assay [1] was > 100 µM (inactive); in [2], > 100 µM (inactive); in assay [19], > 100 µM (inactive); in assay [3], > 100 µM (inactive); in [20], > 100 µM (inactive); in assay [4], more than 100 µM. Moreover, the GI50 in assay [5], in assay [6], in assay [7], in [8], in assay [9] and in assay [10] was > 100 µM (inactive) in each case. Moreover, the GI50 in [11], in [14], in [15], in assay [16], in assay [17] and in assay [18] was > 100 µM (inactive) each time.
For `CNC(=O)/C(C#N)=C(\N)N1CCCC1`, the GI50 in assay [1] was > 100 µM (inactive); in assay [19], > 100 µM (inactive); in assay [3], > 100 µM (inactive); in [4] it was more than 100 µM; in [5], > 100 µM (inactive); in assay [6], > 100 µM (inactive). Besides, the GI50 in [7], in [8], in assay [9], in assay [10], in assay [11] and in [12] was > 100 µM (inactive) throughout. Besides, the GI50 in assay [14], in [15], in [16], in [17] and in [18] was > 100 µM (inactive) throughout.
For `O=[N+]([O-])c1ccc2nc(Cl)n[n+]([O-])c2c1`, the GI50 in [1] is 24.3 µM (inactive); in [2], 12.2 µM (inactive); in assay [19], 0.668 µM (active); in assay [3], 16.8 µM (inactive); in assay [20] it was 1.8 µM (inactive); in assay [4], 13.4 µM. Besides, the GI50 in assay [5] is 16.6 µM (inactive); in assay [6] it was 37 µM (inactive); in assay [7], 18.3 µM (inactive); in assay [8], 13 µM (inactive); in assay [9], 16.8 µM (inactive); in assay [10], 10.3 µM (inactive). The GI50 was 2.89 µM (inactive) in assay [11]; 15.9 µM (inactive) in assay [12]; 11.7 µM (inactive) in [14]; 6.68 µM (inactive) in assay [15]; 17.9 µM (inactive) in [16]; 14 µM (inactive) in assay [17]. Besides, the GI50 in [18] was 23.2 µM (inactive).
As to `COc1cc2cc(C(=O)N3CC(CCl)c4ccc(O)cc43)[nH]c2c(OC)c1OC` (stereo unspecified), the GI50 in assay [1] was 0.00162 µM (active); in [2], 0.00491 µM (active); in [19], 0.00647 µM (active); in [3] it was 0.0356 µM (active); in assay [20] it was 0.00184 µM (active); in assay [4] it was 0.00562 µM. Further, the GI50 was 0.000791 µM (active) in assay [5]; 0.016 µM (active) in assay [6]; 0.00196 µM (active) in assay [7]; 0.0408 µM (active) in [9]; 0.0198 µM (active) in [10]; 0.000556 µM (active) in assay [11]. The GI50 in assay [12] was 0.00344 µM (active); in assay [13] it was 0.0292 µM (active); in [14], 0.00104 µM (active); in assay [15], < 0.0001 µM (active); in assay [16], 0.00466 µM (active); in assay [17], 0.00136 µM (active). In addition, the GI50 in assay [18] was 0.00507 µM (active).
For `CC(C)=NOC(=O)Nc1cccc2c1OCO2`, the GI50 in assay [1] is > 100 µM (inactive); in assay [2], > 100 µM (inactive); in [3], > 100 µM (inactive); in assay [20] it was > 100 µM (inactive); in assay [4] it was more than 100 µM; in assay [5], > 100 µM (inactive). The GI50 in assay [6] was 28.8 µM (inactive); in assay [7] it was > 100 µM (inactive); in [8], > 100 µM (inactive); in assay [9] it was > 100 µM (inactive); in assay [10], > 100 µM (inactive); in assay [11] it was > 100 µM (inactive). For the same compound, the GI50 was > 100 µM (inactive) in assay [12]; > 100 µM (inactive) in assay [13]; > 100 µM (inactive) in [14]; > 100 µM (inactive) in assay [15]; > 100 µM (inactive) in assay [16]; 32.5 µM (inactive) in assay [17]. Also, in assay [18], the GI50 is 71.1 µM (inactive).
